Molecules are shown by their SMILES. Where “and” joins values, the source holds several entries; their conditions need not be identical. Equal values may be shown once. Toxic doses and inconclusive results are not listed.

Results on 18 compounds are retold here after PubChem BioAssay AID328 (DTP/NCI, 2004).

The test concerns BDF1 mice, P388 leukemia ip, median survival T/C. Put plainly: NCI In Vivo Anticancer Drug Screen. Data for tumor model P388 Leukemia (intraperitoneal) in B6D2F1 (BDF1) mice. The conditions noted are these: endpoint: median survival time, higher = longer survival. In outline: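 Read-out is survival of treated animals expressed relative to the vehicle group, as a T/C ratio.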
Where [1] appears, read: dose: 6.25 mg/kg/injection, schedule: Q01DX009 (ip), vehicle: saline with Tween-80.
The mark [2] stands for this setting: dose: 12.5 mg/kg/injection, schedule: Q01DX009 (ip), vehicle: saline with Tween-80.
The mark [3] stands for this setting: dose: 25.0 mg/kg/injection, schedule: Q01DX001 (ip), vehicle: Klucel (hydroxypropylcellulose) (HPC).
Setting [4] is: dose: 50.0 mg/kg/injection, schedule: Q01DX001 (ip), vehicle: Klucel (hydroxypropylcellulose) (HPC).
Where [5] appears, read: dose: 25.0 mg/kg/injection, schedule: Q01DX009 (ip), vehicle: saline with Tween-80.
[6] abbreviates: dose: 25.0 mg/kg/injection, schedule: Q04DX003 (ip), vehicle: saline with Tween-80.
The mark [7] stands for this setting: dose: 50.0 mg/kg/injection, schedule: Q01DX009 (ip), vehicle: saline with Tween-80.
[8] abbreviates: dose: 50.0 mg/kg/injection, schedule: Q04DX003 (ip), vehicle: saline with Tween-80.
[9] abbreviates: dose: 100.0 mg/kg/injection, schedule: Q04DX003 (ip), vehicle: Klucel (hydroxypropylcellulose) (HPC).
Setting [10] is: dose: 200.0 mg/kg/injection, schedule: Q04DX003 (ip), vehicle: Klucel (hydroxypropylcellulose) (HPC).
Where [11] appears, read: dose: 400.0 mg/kg/injection, schedule: Q04DX003 (ip), vehicle: Klucel (hydroxypropylcellulose) (HPC).
[12] abbreviates: dose: 100.0 mg/kg/injection, schedule: Q04DX003 (ip), vehicle: saline with Tween-80.
The mark [13] stands for this setting: dose: 200.0 mg/kg/injection, schedule: Q04DX003 (ip), vehicle: saline with Tween-80.
[14] abbreviates: dose: 400.0 mg/kg/injection, schedule: Q04DX003 (ip), vehicle: saline with Tween-80.
[15] abbreviates: dose: 100.0 mg/kg/injection, schedule: Q01DX001 (ip), vehicle: Klucel (hydroxypropylcellulose) (HPC).
[16] abbreviates: dose: 100.0 mg/kg/injection, schedule: Q01DX009 (ip), vehicle: saline.
Where [17] appears, read: dose: 100.0 mg/kg/injection, schedule: Q04DX003 (ip), vehicle: saline sonified.
Where [18] appears, read: dose: 200.0 mg/kg/injection, schedule: Q04DX003 (ip), vehicle: saline sonified.
[19] abbreviates: dose: 100.0 mg/kg/injection, schedule: Q01DX009 (ip), vehicle: saline with Tween-80.

As for `Cc1cccc(C)c1NC(=S)N(C)C`, the T/C is 100 % of control (dose: 3.13 mg/kg/injection, schedule: Q01DX009 (ip), vehicle: saline with Tween-80); 100 % of control under setting [1]; 109 % of control (dose: 12.0 mg/kg/injection, schedule: Q01DX001 (ip), vehicle: Klucel (hydroxypropylcellulose) (HPC)); 95 % of control under setting [2]; 100 % of control under setting [3]; 100 % of control under setting [4]. Also, the T/C (dose: 100.0 mg/kg/injection, schedule: Q04DX003 (ip), vehicle: saline) is 100 % of control.
Turning to `CNC(C)(C)C(SS)c1ccc(Cl)cc1` (configuration not stated), the T/C runs as follows: under setting [1], 110 % of control; under setting [2], 118 % of control; under setting [5], 105 % of control and 121 % of control; under setting [6], 101 % of control; under setting [7], 96 % of control and 110 % of control; under setting [8], 99 % of control.
Turning to `NCCc1ccc(O)c(O)c1`, the T/C was 101 % of control and 120 % of control (dose: 37.5 mg/kg/injection, schedule: Q01DX009 (ip), vehicle: saline); 114 % of control (dose: 75.0 mg/kg/injection, schedule: Q01DX009 (ip), vehicle: saline); 111 % of control (dose: 150.0 mg/kg/injection, schedule: Q01DX009 (ip), vehicle: saline); 158 % of control (dose: 300.0 mg/kg/injection, schedule: Q01DX009 (ip), vehicle: saline).
In the case of `COC(=O)C1c2cc3c(c(O)c2CCC1(C)O)C(=O)c1c(O)cc2c(c1C3=O)OC1OC2(C)C(O)C(N(C)C)C1O` (configuration not stated), the T/C reads like this: (dose: 11.0 mg/kg/injection, schedule: Q01DX009 (ip), vehicle: saline) 113 % of control; (dose: 200.0 mg/kg/injection, schedule: Q01DX010 (ip), vehicle: saline) 105 % of control.
As to `CSc1ccccc1C(=O)NNS(=O)(=O)c1ccc(C)cc1`, the T/C runs as follows: under setting [9], 91 % of control; under setting [10], 104 % of control; under setting [11], 100 % of control.
For the compound `OC(CC(O)(C(F)(F)F)C(F)(F)F)c1ccccc1` (configuration not stated), the T/C by setting is: under setting [12], 100 % of control; under setting [13], 118 % of control; under setting [14], 113 % of control.
For the compound `c1cc2ccsc2cn1`, the T/C was 103 % of control under setting [2]; 92 % of control under setting [5]; 95 % of control under setting [6]; 92 % of control under setting [7]; 91 % of control under setting [8].
Regarding `O=S1(=O)CCN(C2CCCCCCCCCCC2)CC1`, the T/C runs as follows: (dose: 50.0 mg/kg/injection, schedule: Q01DX009 (ip), vehicle: Klucel (hydroxypropylcellulose) (HPC)) 108 % of control; (dose: 100.0 mg/kg/injection, schedule: Q01DX009 (ip), vehicle: Klucel (hydroxypropylcellulose) (HPC)) 106 % of control; (dose: 200.0 mg/kg/injection, schedule: Q01DX009 (ip), vehicle: Klucel (hydroxypropylcellulose) (HPC)) 101 % of control.
On to `CC(=O)OC1CCC2(C)C(=CCC3C2CCC2(C)C(OC(=O)c4ccccc4)CCC32)C1` (configuration not stated), for which the T/C by setting is: under setting [15], 100 % of control; under setting [16], 110 % of control; under setting [9], 120 % of control; (dose: 200.0 mg/kg/injection, schedule: Q01DX001 (ip), vehicle: Klucel (hydroxypropylcellulose) (HPC)) 100 % of control; (dose: 200.0 mg/kg/injection, schedule: Q01DX009 (ip), vehicle: saline) 95 % of control; under setting [10], 105 % of control. Besides, the T/C is, setting by setting: (dose: 400.0 mg/kg/injection, schedule: Q01DX001 (ip), vehicle: Klucel (hydroxypropylcellulose) (HPC)) 100 % of control; (dose: 400.0 mg/kg/injection, schedule: Q01DX009 (ip), vehicle: saline) 105 % of control; under setting [11], 110 % of control.
Turning to `CCCNC(=O)Nc1cccc(Cl)c1C`, the T/C reads like this: under setting [12], 104 % of control; under setting [13], 100 % of control; under setting [14], 100 % of control.
Regarding `COc1cc(/C=N/OCc2cc3c(cc2Cl)OCO3)cc(OC)c1OC`, the T/C under setting [17] is 95 % of control; the T/C under setting [18] was 90 % of control; the T/C (dose: 400.0 mg/kg/injection, schedule: Q04DX003 (ip), vehicle: saline sonified) is 104 % of control.
Consider `O=C(O)C1(O)C(Cl)(Cl)C(Cl)=C(Cl)C1(Cl)Cl`, for which the T/C is, setting by setting: (dose: 25.0 mg/kg/injection, schedule: Q01DX009 (ip), vehicle: saline) 118 % of control; (dose: 50.0 mg/kg/injection, schedule: Q01DX009 (ip), vehicle: saline) 122 % of control; under setting [16], 118 % of control.
On to `Cc1nc2n(c1/C=N/NC(N)=S)CCS2`, for which the T/C is, setting by setting: under setting [3], 102 % of control; under setting [4], 98 % of control; under setting [15], 98 % of control.
For the compound `CC(=O)n1ccnc1/C=C\c1ccc([N+](=O)[O-])s1`, the T/C reads like this: (dose: 50.0 mg/kg/injection, schedule: Q04DX003 (ip), vehicle: Klucel (hydroxypropylcellulose) (HPC)) 95 % of control; under setting [9], 110 % of control; under setting [10], 105 % of control.
Regarding `[Cl][Pt+2]([Cl])([Cl])[Cl].[Na+].[S-]c1ncnc2nc[nH]c12.[S-]c1ncnc2nc[nH]c12`, the T/C was 120 % of control under setting [19]; 100 % of control under setting [12]; 100 % of control under setting [13]; 113 % of control (dose: 300.0 mg/kg/injection, schedule: Q01DX009 (ip), vehicle: saline with Tween-80); 112 % of control (dose: 400.0 mg/kg/injection, schedule: Q01DX009 (ip), vehicle: saline with Tween-80); 122 % of control under setting [14].
For `N#Cc1cc([N+](=O)[O-])ccc1Cl`, the T/C is 90 % of control under setting [5], 105 % of control under setting [7] and 105 % of control under setting [19].
For `COc1cc([C@@H]2c3cc4c(cc3[C@H](OC(C)=O)[C@H]3COC(=O)[C@@H]23)OCO4)cc(OC)c1OC`, the T/C runs as follows: (dose: 25.0 mg/kg/injection, schedule: Q01DX010 (ip), vehicle: carboxymethylcellulose (CMC)) 123 % of control; under setting [7], 172 % of control; (dose: 50.0 mg/kg/injection, schedule: Q01DX010 (ip), vehicle: carboxymethylcellulose (CMC)) 95 % of control; (dose: 50.0 mg/kg/injection, schedule: Q04DX003 (ip), vehicle: saline sonified) 100 % of control; (dose: 66.0 mg/kg/injection, schedule: Q04DX003 (ip), vehicle: saline sonified) 88 % of control; (dose: 88.0 mg/kg/injection, schedule: Q04DX003 (ip), vehicle: saline with Tween-80) 113 % of control. The T/C under setting [17] is 100 % of control; the T/C (dose: 132.0 mg/kg/injection, schedule: Q04DX003 (ip), vehicle: saline with Tween-80) was 150 % of control; the T/C (dose: 150.0 mg/kg/injection, schedule: Q04DX003 (ip), vehicle: saline sonified) is 100 % of control; the T/C under setting [18] was 170 % of control; the T/C under setting [13] was 160 % of control.
Turning to `C[n+]1ccc(Nc2ccc(NC(=O)c3ccc(N)cc3)cc2)cc1`, the T/C is 101 % of control (dose: 12.5 mg/kg/injection, schedule: Q01DX009 (ip), vehicle: water); 100 % of control (dose: 12.5 mg/kg/injection, schedule: Q04DX003 (ip), vehicle: water); 98 % of control (dose: 25.0 mg/kg/injection, schedule: Q04DX003 (ip), vehicle: water); 100 % of control and 106 % of control (dose: 50.0 mg/kg/injection, schedule: Q04DX003 (ip), vehicle: water); 155 % of control (dose: 100.0 mg/kg/injection, schedule: Q01DX009 (ip), vehicle: water); 116 % of control and 117 % of control (dose: 100.0 mg/kg/injection, schedule: Q04DX003 (ip), vehicle: water). For the same compound, the T/C by setting is: (dose: 200.0 mg/kg/injection, schedule: Q01DX009 (ip), vehicle: water) 154 % of control; (dose: 400.0 mg/kg/injection, schedule: Q01DX009 (ip), vehicle: water) 180 % of control; (dose: 500.0 mg/kg/injection, schedule: Q04DX003 (ip), vehicle: water) 123 % of control; (dose: 600.0 mg/kg/injection, schedule: Q04DX003 (ip), vehicle: water) 103 % of control.
